For 2 molecules, GI50 and TGI results are on record in PubChem BioAssay (NCI).

Among the test systems are A498 renal; CAKI-1 renal; HCC-2998 colon; M14 melanoma; MCF7 breast; MOLT-4 leukemia; NCI/ADR-RES ovarian; SK-MEL-28 melanoma; UACC-257 melanoma; UACC-62 melanoma.
What all share (experiment): NCI tumour cell line growth inhibition, 48 h

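Cultured in 96-well plates, cells were exposed to test compound for 48 hours across five concentrations. The concentration for 50% growth inhibition is given as GI50. TGI marks complete inhibition of growth.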 Where only a bound is given, the exact number is not on record here.

As for `COC(=O)c1cc2c3ccccc3n3c2c(n1)-c1[nH]c2ccccc2c(=O)c1C3`, the GI50 in the assay with A498 renal is 27 µM; with CAKI-1 renal, over 100 µM; in the assay with HCC-2998 colon it was over 100 µM; in the assay with M14 melanoma, over 100 µM; with MCF7 breast it was 15.6 µM; in the assay with MOLT-4 leukemia it was 5.9 µM. In addition, the GI50 was over 100 µM with NCI/ADR-RES ovarian, over 100 µM in the assay on SK-MEL-28 melanoma, over 100 µM in the assay with UACC-257 melanoma and 43.3 µM in the assay on UACC-62 melanoma. Besides, the TGI was 73.7 µM with A498 renal; over 100 µM in the assay with CAKI-1 renal; over 100 µM in the assay on HCC-2998 colon; over 100 µM in the assay with M14 melanoma; over 100 µM in the assay with MCF7 breast; over 100 µM in the assay with MOLT-4 leukemia. The TGI in the assay on NCI/ADR-RES ovarian, in the assay with SK-MEL-28 melanoma, in the assay with UACC-257 melanoma and with UACC-62 melanoma was over 100 µM each time.

For the molecule `Cn1cc(-c2cnn3c(N)c(Br)c(C4CCCNC4)nc23)cn1` (stereo not given), the GI50 in the assay on A498 renal is 0.238 µM; with CAKI-1 renal it was 5.43 µM; in the assay on HCC-2998 colon, 1.02 µM; in the assay with M14 melanoma, 0.325 µM; in the assay with MCF7 breast, 13.7 µM; in the assay with MOLT-4 leukemia, 0.575 µM. The GI50 was 8.36 µM in the assay on NCI/ADR-RES ovarian, 24.3 µM in the assay with SK-MEL-28 melanoma, 17.8 µM with UACC-257 melanoma and 8.9 µM in the assay on UACC-62 melanoma. Moreover, the TGI in the assay on A498 renal was 2 µM; in the assay with CAKI-1 renal, over 38.5 µM; in the assay with HCC-2998 colon, over 42.6 µM; in the assay with M14 melanoma, 16.8 µM; in the assay on MCF7 breast it was over 68.6 µM; in the assay with MOLT-4 leukemia, 23.2 µM. Also, the TGI with NCI/ADR-RES ovarian was over 100 µM; in the assay with SK-MEL-28 melanoma, over 100 µM; with UACC-257 melanoma it was 60.6 µM; in the assay on UACC-62 melanoma, 28.8 µM.
